According to PMC9115111, “Metalloprotease Gp63-Targeting Novel Glycoside Exhibits Potential Antileishmanial Activity” (Frontiers in Cellular and Infection Microbiology, 2022):
Several values for one entry are separate records, joined by “and”; a condition that tells them apart may be missing. Equal values may be shown once.

What was measured:
[1] = test system: L. donovani promastigotes; test: Hoechst/PI live/dead dual staining of promastigotes; type: cell-based, Leishmania donovani; settings: 5 µM, 72 h
Experimental: The toxic effect of the three compounds, Gly2, 6, and 8 on promastigotes at 5 µM >IC50 concentration was measured by Hoechst and propidium iodide (PI) double staining. […], parasites were harvested, washed in 0.01 M PBS (pH = 7.4), and stained with Hoechst 33258 (1 µg/ml) (Life Technologies, USA) and PI (5 µg/ml) (Life Technologies, USA) followed by incubation for a period of 20 min at 37°C. Subsequently, cells were washed for excessive stain removal and visualized using fluorescence microscope with 510–560-nm filter block for PI red fluorescence and excitation/emission spectra at 361/497 for Hoechst ([López-Arencibia et al., 2015]).

AG83 promastigotes = test: CFDA-SE promastigote proliferation assay (FACS); type: cell-based, Leishmania donovani; settings: 5 µM
Experimental: AG83 parasite growth and multiplication were assessed by fluorescence-activated cell sorting and fluorescence microscopy with 6-carboxyfluorescein diacetate succinimidyl ester (CFDA-SE, Life Technologies, USA) as a probe. Promastigotes were washed thrice with PBS. The cells were labeled with CFDA-SE dye and were then incubated at 37°C for 10 min. These cells were then resuspended in ice-cold M199 medium. Furthermore, they were centrifuged at 1,200 g for 10 min (4°C) and resuspended in fresh medium. Cells were treated with the Gly2 and were analyzed through BD FACS DIVA for 3 consecutive replicates after 0, 24, 48, and 72 h, respectively ([Messaritakis et al., 2010]).

[2] = test system: L. donovani promastigotes; test: DCFDA estimation of reactive oxygen species in promastigotes; type: cell-based, Leishmania donovani; settings: Gly2-treated promastigotes, 72 h
Experimental: The redox homeostasis of promastigotes was monitored both qualitatively and quantitively by 2',7'-dichlorodihydrofluorescein diacetate (DCFDA) (Life Technologies, USA) staining. The untreated and […]-treated promastigotes (1 × 10^6 cells/ml) were cultured for 72 h. Following incubation, the parasites were harvested, washed with PBS, and stained with H2DCFDA (20 μM) for 20 min at 37°C. Excess stain was removed by washing with PBS, and samples were resuspended in PBS (50 μl) followed by imaging. Fluorescence intensity was determined using an excitation filter at 485 nm and an emission filter at 535 nm using confocal microscope (Nikon Ti eclipse, USA). The samples were also analyzed through BD FACS diva ([Shivappagowdar et al., 2019]).

[3] = test system: L. donovani promastigotes; test: Complement-mediated cytolysis of promastigotes by PI uptake (10% NHS); type: cell-based, Leishmania donovani
Experimental: Parasites with an optimum 10% non-heat-inactivated normal human serum (NHS) were incubated with Gly2 at 5-µM concentration for 15 min. Promastigote lysis was detected by uptake of PI, by use of a FACS Diva flow cytometer (Beckton-Dickinson, Pharmingen), in accordance with the manufacturer’s protocol. Promastigotes were washed for excessive stain removal and filter block for PI red fluorescence, 510–560 nm was used ([Moreno et al., 2010]).

LdGp63 = target: T1, LdGp63 (Leishmania donovani, UniProt P23223); test: Cellular thermal shift assay (CETSA) in promastigotes; type: binding; settings: 5 µM, 24 h, heated to 80°C; Gp63 destabilized in untreated lysate
T1 construct: endogenous in cells; host or cells: Leishmania donovani promastigotes (AG83 lab strain per abstract)
Experimental: Control cells were incubated with an equal volume of a vehicle. Following incubation, the parasites were washed with PBS to remove excess drug and harvested in 200 μl of a lysis solution (50 mM HEPES, 150 mM NaCl, 1% Triton X-100 and 1% IGEPAL, 1 mM phenylmethyl sulfonyl fluoride). The lysates were centrifuged at 14,000 g for 20 min at 4°C, and supernatants were transferred to new tubes. Furthermore, the protein concentration was measured using the Pierce BCA protein assay kit. After preparation of lysates, 30 μl (0.8 mg/ml) aliquots of the supernatants were heated individually on a Thermomixer compact (Eppendorf) at different temperatures for 7 min and then cooled at room temperature for 3 min. CETSA samples were separated by SDS-PAGE, and immunoblotting was performed as described previously using a mouse polyclonal anti-LdGp63 catalytic domain antibody (1:500) ([Chakrabarti et al., 2021]).

MDCK cells = test: MTT cell viability assay on MDCK cells; type: cell-based
Experimental: The J774.A1 murine macrophage cells were grown in Roswell Park Memorial Institute (RPMI) 1640 medium in the presence of 10% (v/v) FBS and 100 U/ml penicillin−100 µg/ml streptomycin (Gibco, Invitrogen, Thermo Fisher Scientific, NY, USA) at 37°C (humidified) and 5% CO2. […] Madin–Darby canine kidney (MDCK) cells were obtained from the National Centre for Cell Science, Pune, India. MDCK cells were derived from the kidney tissue of an adult female Cocker Spaniel. These were grown in Dulbecco’s modified Eagle’s minimal essential medium (DMEM) in the presence of 10% (v/v) FBS and 100 U/ml penicillin−100 µg/ml streptomycin (Gibco, Invitrogen, Thermo Fisher Scientific, NY, USA) at 37°C (humidified) and 5% CO2 ([Ayana et al., 2018]; [Shivappagowdar et al., 2021]).
All the compounds were dissolved in dimethyl sulfoxide (DMSO) (Sigma-Aldrich) for 1 mM stock solution and were screened against promastigotes at a concentration of 5 µM. […]
To evaluate the cytotoxic effects of 12 compounds on L. donovani promastigotes, LDH assay was performed. This assay involves the reduction of tetrazolium salts to formazan during LDH-mediated catalysis of lactate to pyruvate, which can be detected at 490 nM. […] The selectivity index (SI) for the compound was calculated as the ratio between cytotoxicity (CC50) and activity (IC50) against promastigotes ( Table 1 ).

T1 sequence (P23223 88-565): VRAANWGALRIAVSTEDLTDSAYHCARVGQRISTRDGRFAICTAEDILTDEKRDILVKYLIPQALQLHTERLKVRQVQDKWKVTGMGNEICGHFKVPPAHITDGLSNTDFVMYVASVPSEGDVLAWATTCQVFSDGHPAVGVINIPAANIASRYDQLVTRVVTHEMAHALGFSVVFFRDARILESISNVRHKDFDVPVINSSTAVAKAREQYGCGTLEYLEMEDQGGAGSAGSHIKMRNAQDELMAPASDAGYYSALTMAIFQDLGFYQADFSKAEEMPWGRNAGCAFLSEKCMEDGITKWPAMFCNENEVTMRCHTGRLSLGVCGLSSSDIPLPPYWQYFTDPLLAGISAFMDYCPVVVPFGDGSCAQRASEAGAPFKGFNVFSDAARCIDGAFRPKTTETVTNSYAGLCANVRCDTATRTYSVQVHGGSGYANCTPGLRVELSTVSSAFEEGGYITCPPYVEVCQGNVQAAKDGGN

`CC(C)CCOC1O[C@H](CO)[C@@H](O)[C@H](O)[C@H]1O` (stereo partly drawn) [Gly2] was tested. Which “dead parasites (PI positive)” value [1] did it give?
The value was ~ 94% and ~ 94.15% and ~ 90%.

What about the “percentage of CFDA-positive cells” value (AG83 promastigotes; 24 h) of the same compound?
Its value is 81.59%.

What about the “percentage of CFDA-positive cells” value (AG83 promastigotes; 48 h) of the same compound?
The value was 74.68%.

And the “percentage of CFDA-positive cells” value (AG83 promastigotes; 72 h)?
The value was 68.48%.

What about the “% DCFDA+ parasites” value [2] of the same compound?
Its value is ~ 50%.

What about the “promastigote death (PI uptake)” value ([3]; 10% NHS, Gly2 at 5 µM where treated, control in 10% heat-inactivated FBS 0.06%) of the same compound?
The value was ~ 80%.

What about the “increment in PI uptake” value ([3]; Gly2 + 10% NHS vs 10% NHS alone) of the same compound?
Its value is 24.65%.

And the “thermostability of Gp63 in treated lysates (immunoblot)” value (LdGp63)?
Its value is “stable at higher temperature”.

What about the “cytotoxicity in MDCK cells” value (MDCK cells) of the same compound?
The value was “minimum level of cytotoxicity”.
